Experimental data published in article PMC6324813, “Biological evaluation of isoflavonoids from Genista halacsyi using estrogen-target cells: Activities of glucosides compared to aglycones” (PLoS ONE, 2019).
Where two headings read alike, the source gives them in different places.

Legend:
[1] = molecular target: T1, ERα (Homo sapiens, UniProt P03372); assay: ERE-dependent luciferase gene transcription in MCF-7:D5L cells; type: cell-based; parameters: MCF-7:D5L cells, a clone of MCF-7 cells stably transfected with an Estrogen Response Element (ERE)-endowed reporter plasmid; endogenous in cells; host or cells: MCF-7:D5L (MCF-7 clone carrying pERE-Gl-Luciferase); details: for Induction of ERE-dependent Luciferase Transcription (MCF-7:D5L cells) AUC (%): % of AUC of luciferase response of archetypal 3, 4, 5 or 8 up to 0.3, 10, 1.0 and 3.0 μM; for Induction of luciferase gene transcription through ERα, MCF-7:D5L cells, Agonism at 1μΜ (% of 0.1nM E2) / Induction of luciferase gene transcription, MCF-7:D5L cells, Agonism at 1μΜ, class: compounds 1 μM, 18 h; for Induction of luciferase gene transcription through ERα, MCF-7:D5L cells, Agonism at 1μΜ (% of 0.1nM E2): estradiol 0.1 nM; for Induction of ERE-dependent Luciferase Transcription (MCF-7:D5L cells) EC25E2: concentration required to achieve 25% of the effect of 0.1 nM E2; for EC50: concentration required to achieve 50% of the effect of 0.1 nM E2, read-out: Induction of ERE-dependent Luciferase Transcription (MCF-7:D5L cells) EC50E2
T1 sequence (P03372 1-595): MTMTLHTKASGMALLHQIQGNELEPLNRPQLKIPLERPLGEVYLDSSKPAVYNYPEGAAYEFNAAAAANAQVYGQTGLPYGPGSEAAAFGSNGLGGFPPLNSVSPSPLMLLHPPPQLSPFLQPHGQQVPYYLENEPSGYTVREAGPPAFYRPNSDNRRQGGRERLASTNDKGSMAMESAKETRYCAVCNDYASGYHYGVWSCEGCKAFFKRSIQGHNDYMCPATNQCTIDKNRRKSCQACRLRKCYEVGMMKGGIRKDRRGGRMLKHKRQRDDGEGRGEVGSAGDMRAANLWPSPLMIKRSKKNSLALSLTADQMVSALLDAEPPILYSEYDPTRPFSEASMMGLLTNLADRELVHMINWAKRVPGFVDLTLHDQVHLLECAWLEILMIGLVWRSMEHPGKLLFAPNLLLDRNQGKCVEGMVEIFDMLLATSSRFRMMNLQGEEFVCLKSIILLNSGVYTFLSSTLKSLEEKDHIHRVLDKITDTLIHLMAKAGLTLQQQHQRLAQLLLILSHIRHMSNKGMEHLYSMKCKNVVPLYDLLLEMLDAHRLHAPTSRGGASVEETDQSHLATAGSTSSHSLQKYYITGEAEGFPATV
Procedure: (§1) Assessment of ER/ERE-dependent luciferase gene transcription in MCF-7:D5L (express ERα) and HEK:ERβ cells (express ERβ) and determination of ER transcriptional agonism was carried as already described. Briefly, the cells were plated in 96-well plates at a density of 12,000 cells per well in phenol-red-free MEM (MCF-7:D5L cells) or phenol-red-free DMEM (HEK:ERβ cells) supplemented with 1 μg/mL insulin and 5% DCC-FBS. […] The AUC of the isoflavonoids of each group were then expressed as % of the AUC of the respective archetypal isoflavone. Since AUC data combine the efficacy as well as the potency of cell response into a single parameter, the %AUC data were considered here as a more reliable measure of relative ER/ERE-dependent luciferase expression of the test compounds.

[2] = molecular target: T2, ERβ (Homo sapiens, UniProt Q92731); assay: ER binding competitor assay (fluorescent estrogen ES2), ERβ; parameters: purchased Invitrogen; details: for RBAβ / RBAα: ERβ-binding selectivity; for RBAβ: RBA = (IC50 estradiol/IC50 compound) × 100, ES2 1 nM, estradiol set equal to 100
T2 sequence (Q92731 whole entry): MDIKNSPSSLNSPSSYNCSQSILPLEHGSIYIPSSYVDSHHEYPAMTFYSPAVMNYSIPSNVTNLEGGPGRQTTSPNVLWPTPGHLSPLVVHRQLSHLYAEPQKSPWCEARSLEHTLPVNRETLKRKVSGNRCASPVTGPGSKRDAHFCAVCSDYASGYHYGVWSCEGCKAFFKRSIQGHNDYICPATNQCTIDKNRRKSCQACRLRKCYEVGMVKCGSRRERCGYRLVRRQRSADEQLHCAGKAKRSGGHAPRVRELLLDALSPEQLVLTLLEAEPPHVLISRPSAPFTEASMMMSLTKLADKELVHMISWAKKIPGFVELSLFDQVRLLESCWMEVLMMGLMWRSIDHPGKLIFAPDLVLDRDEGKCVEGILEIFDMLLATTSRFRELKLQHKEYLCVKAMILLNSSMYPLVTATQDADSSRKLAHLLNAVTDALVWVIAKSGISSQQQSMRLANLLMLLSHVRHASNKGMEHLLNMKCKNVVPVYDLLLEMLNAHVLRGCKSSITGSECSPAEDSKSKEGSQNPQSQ

[3] = tested on: MCF-7 cells; assay: MCF-7 cell proliferation (MTT); type: cell-based, human; details: for activation at 1 µM: Homo sapiens, MCF7, 72 h, read-out: Induction of cell proliferation (MCF-7 cells) Agonism at 1μΜ (% of 0.1nM E2); for Induction of cell proliferation (MCF-7 cells) Agonism at 1μΜ, class: compounds 1 μM, 72 h
Procedure: Test compound effects on the proliferation of MCF-7 and MDA-MB-231 cells were assessed as previously described.

[4] = molecular target: T1, ERα; parameters: purchased Invitrogen; details: cited from earlier work
[5] = tested on: Ishikawa cells; assay: Induction of AlkP expression in Ishikawa cells; type: cell-based, human; details: for Induction of Alkaline Phosphatase Expression (Ishikawa cells) AUC (%): % of AUC of luciferase response of archetypal 3, 4, 5 or 8 up to 0.3, 10, 1.0 and 3.0 μM; for Ratio of AUC (AlkP / Lucif): AUCAlkP / AUCluciferase; for EC (25% of 0.1 nM E2 effect) / activation at 1 µM / EC50: Homo sapiens, Ishikawa; for EC (25% of 0.1 nM E2 effect) / activation at 1 µM / Induction of AlkP expression (Ishikawa cells) Agonism at 1μΜ, class: 72 h; for EC (25% of 0.1 nM E2 effect): concentration required to achieve 25% of the effect of 0.1 nM E2, read-out: Induction of Alkaline Phosphatase Expression (Ishikawa cells) EC25E2; for activation at 1 µM: read-out: Induction of AlkP expression (Ishikawa cells) Agonism at 1μΜ (% of 0.1nM E2); for EC50: concentration required to achieve 50% of the effect of 0.1 nM E2, read-out: Induction of Alkaline Phosphatase Expression (Ishikawa cells) EC50E2; for Induction of AlkP expression (Ishikawa cells) Agonism at 1μΜ, class: compounds 1 μM
Procedure: Induction of AlkP expression of Ishikawa cells is considered as a reliable in vitro measure of estrogenic activity. Assessment of AlkP expression in Ishikawa cells was carried as already described. Briefly, the cells were plated in 96-well plates at a density of 12,000 cells per well in phenol-red-free MEM supplemented with 1 μg/mL insulin and 5% DCC-FBS. […] Data on the dependence of AlkP activity on isoflavonoid concentration were curve fitted using SigmaPlot10 (SPSS Inc) and the numerical data of curve fitting were used to determine AUC as described above, using for the calculation of AUC of a particular AlkP response the very same concentration used for the respective luciferase response. The AUC of AlkP responses of the isoflavonoids of a group were expressed as % of the AUC of the luciferase response of the respective archetypal isoflavone.

[6] = molecular target: T2, ERβ; parameters: purchased Invitrogen; details: cited from earlier work
[7] = molecular target: T2, ERβ; assay: ERE-dependent luciferase gene transcription in HEK:ERβ cells; type: cell-based; parameters: expressed in transfected cells; host or cells: HEK-293 (HEK:ERβ clone, with pERE-tk-Luciferase); details: for activation at 1 µM: read-out: Induction of luciferase gene transcription through ERβ, HEK:ERβ cells, Agonism at 1μΜ (% of 0.1nM E2); for ERβ-dependent gene transcription agonist effect compared to the effect of 0.1 nM estradiol: isoflavonoids 1 μM, statistically significant effects
Procedure: as §1

[8] = tested on: TNFα mRNA; details: 1–10 μM, ER-independent; cited from earlier work
[9] = molecular target: T1, ERα; assay: ER binding competitor assay (fluorescent estrogen ES2), ERα; parameters: purchased Invitrogen; details: RBA = (IC50 estradiol/IC50 compound) × 100; ES2 1 nM; estradiol set equal to 100
[10] = isoflavonoids 1 μM, statistically significant effects

COc1ccc(-c2coc3cc(O)cc(O)c3c2=O)cc1 [Compound 1, Biochanin A]
Induction of ERE-dependent Luciferase Transcription (MCF-7:D5L cells) AUC (%) [1]: 33±8 % | Induction of luciferase gene transcription through ERα, MCF-7:D5L cells, Agonism at 1μΜ (% of 0.1nM E2) [1]: 83 ± 16 (Full) % of 0.1nM E2 | Induction of ERE-dependent Luciferase Transcription (MCF-7:D5L cells) EC25E2 [1]: 160 ± 90 nM | EC50 [1]: 300 ± 30 nM | selectivity for ERβ (class of RBAβ/RBAα) [2]: moderate (3–10) | activation at 1 µM [3]: 70 ± 10% | mean value (and the range) of previously reported RBAα [4]: 0.18 (0.02–0.34) | Induction of Alkaline Phosphatase Expression (Ishikawa cells) AUC (%) [5]: 26±2 % | Ratio of AUC (AlkP / Lucif) [5]: 0.79±0.04 | EC (25% of 0.1 nM E2 effect) [5]: 0.19 ± 0.01 µM | activation at 1 µM [5]: 53 ± 9% | EC50 [5]: 420 ± 30 nM | AlkP-inducing agonist effect compared to the effect of 0.1 nM estradiol [5, 10]: lower than | RBAβ / RBAα ([6]; ERβ-binding selectivity, ref 51 (Fokialakis et al.)): 3.83 | mean value (and the range) of previously reported RBAβ [6]: 0.69 (0.18–1.20) | activation at 1 µM ([7]; 18 h): 31 ± 15% | ERβ-dependent gene transcription agonist effect compared to the effect of 0.1 nM estradiol [7]: lower than

O=c1c(-c2ccc(O)cc2)coc2cc(O)ccc12 [Compound 5, daidzein]
Induction of ERE-dependent Luciferase Transcription (MCF-7:D5L cells) AUC (%) [1]: 100±13% | Induction of luciferase gene transcription through ERα, MCF-7:D5L cells, Agonism at 1μΜ (% of 0.1nM E2) [1]: 50 ± 12 (Partial) ^* % of 0.1nM E2 | Induction of ERE-dependent Luciferase Transcription (MCF-7:D5L cells) EC25E2 [1]: 380 ± 70 nM | ERα-dependent gene transcription agonist effect compared to the effect of 0.1 nM estradiol [1, 10]: lower than | activation at 1 µM [3]: 59 ± 7% | mean value (and the range) of previously reported RBAα [4]: 0.20 (0.01–0.55) | Induction of Alkaline Phosphatase Expression (Ishikawa cells) AUC (%) [5]: 104±19% | EC (25% of 0.1 nM E2 effect) [5]: 0.46 ± 0.05 µM | activation at 1 µM [5]: 54 ± 4% | EC50 [5]: 1300 ± 150 nM | mean value (and the range) of previously reported RBAβ [6]: 0.65 (0.04–2.11) | RBAβ ([6]; estradiol = 100, ref 27 (Halabalaki et al.)): 0.36 ± 0.09 | Induction of luciferase gene transcription through ERβ, HEK:ERβ cells, Agonism at 1μΜ (% of 0.1nM E2) ([7]; compounds 1 μM, estradiol 0.1 nM, 18 h): 84 ± 8 (Full) % of 0.1nM E2

Oc1ccc(C2COc3cc(O)ccc3C2)cc1 (centres unmarked) [equol, 4',7-isoflavandiol]
suppression of LPS-induced TNFα mRNA expression and cytokine release [8]: dose-dependent suppression

O=c1c(-c2ccc(O)c(O)c2)coc2c(C3OC(CO)C(O)C(O)C3O)c(O)cc(O)c12 (centres unmarked) [Compound 9, 8-C-glucopyranosyl-orobol]
RBAα [9]: 0.11 ± 0.03 | Induction of ERE-dependent Luciferase Transcription (MCF-7:D5L cells) AUC (%) [1]: 1.6±0.3 % | Induction of luciferase gene transcription, MCF-7:D5L cells, Agonism at 1μΜ, class [1]: Marginal (⩽10%) | Induction of ERE-dependent Luciferase Transcription (MCF-7:D5L cells) EC25E2 [1]: >30000 nM | EC50 [1]: > 30000 nM | RBAβ / RBAα [2]: 0.45 | RBAβ [2]: 0.05 ± 0.01 | Induction of cell proliferation (MCF-7 cells) Agonism at 1μΜ, class [3]: Marginal (⩽10%) | AlkP response lower than ERα-transcriptional response (relative AUC ratios) [5]: ~ 30% | Induction of Alkaline Phosphatase Expression (Ishikawa cells) AUC (%) [5]: 1.1±0.1 % | Ratio of AUC (AlkP / Lucif) [5]: 0.69±0.07 | EC (25% of 0.1 nM E2 effect) [5]: > 30 µM | EC50 [5]: > 30000 nM | Induction of AlkP expression (Ishikawa cells) Agonism at 1μΜ, class [5]: Marginal (⩽10%) | Induction of luciferase gene transcription, HEK:ERβ cells, Agonism at 1μΜ, class ([7]; compounds 1 μM, 18 h): Marginal (⩽10%)

COc1cc(-c2coc3c(C4OC(CO)C(O)C(O)C4O)c(O)cc(O)c3c2=O)ccc1O (centres unmarked) [Compound 13, 8-C-glucopyranosyl-3΄-O-methylorobol]
RBAα [9]: 0.12 ± 0.05 | Induction of ERE-dependent Luciferase Transcription (MCF-7:D5L cells) AUC (%) [1]: 77±17% | Induction of luciferase gene transcription, MCF-7:D5L cells, Agonism at 1μΜ, class [1]: Marginal (⩽10%) | Induction of ERE-dependent Luciferase Transcription (MCF-7:D5L cells) EC25E2 [1]: 2200 ± 180 nM | EC50 [1]: 3420 ± 910 nM | RBAβ / RBAα [2]: 1.00 | RBAβ [2]: 0.12 ± 0.04 | Induction of cell proliferation (MCF-7 cells) Agonism at 1μΜ, class [3]: Marginal (⩽10%) | AlkP response lower than ERα-transcriptional response (relative AUC ratios) [5]: ~ 30% | Induction of Alkaline Phosphatase Expression (Ishikawa cells) AUC (%) [5]: 61±11% | Ratio of AUC (AlkP / Lucif) [5]: 0.79±0.13 | EC (25% of 0.1 nM E2 effect) [5]: 1.01 ± 0.27 µM | activation at 1 µM [5]: 15 ± 4% | EC50 [5]: 2340 ± 650 nM | Induction of luciferase gene transcription, HEK:ERβ cells, Agonism at 1μΜ, class ([7]; compounds 1 μM, 18 h): Marginal (⩽10%)

COc1cc(O)cc2occ(-c3ccc(O)c(O)c3)c(=O)c12 [Compound 7, 5-O-methylorobol]
RBAα [9]: 0.13 ± 0.04 | Induction of ERE-dependent Luciferase Transcription (MCF-7:D5L cells) AUC (%) [1]: 103±9% | Induction of luciferase gene transcription, MCF-7:D5L cells, Agonism at 1μΜ, class [1]: Marginal (⩽10%) | Induction of ERE-dependent Luciferase Transcription (MCF-7:D5L cells) EC25E2 [1]: 5350 ± 610 nM | EC50 [1]: 9500 ± 1570 nM | RBAβ / RBAα [2]: 1.15 | RBAβ [2]: 0.15 ± 0.04 | Induction of cell proliferation (MCF-7 cells) Agonism at 1μΜ, class [3]: Marginal (⩽10%) | AlkP response lower than ERα-transcriptional response (relative AUC ratios) [5]: ~ 30% | Induction of Alkaline Phosphatase Expression (Ishikawa cells) AUC (%) [5]: 76±15% | Ratio of AUC (AlkP / Lucif) [5]: 0.74±0.13 | EC (25% of 0.1 nM E2 effect) [5]: 7.08 ± 0.45 µM | EC50 [5]: 11800 ± 2500 nM | Induction of AlkP expression (Ishikawa cells) Agonism at 1μΜ, class [5]: Marginal (⩽10%) | activation at 1 µM ([7]; 18 h): 13 ± 4% | ERβ-dependent gene transcription agonist effect compared to the effect of 0.1 nM estradiol [7]: lower than
